The target of this test is histone deacetylase (HDAC). Nature of the test: Inhibition of Histone Deacetylase Enzymatic Activity. The note with it: substrate Boc-Lys(Ac)-AMC, Fluor-de-Lys developer, 37° C., 20 min; against one or more of HDAC-1 to HDAC-11, SirT1 to SirT7 (isoform not given); read-out: HDAC Inhibitory Activity (IC50). It counts as biochemical. In short, it runs like this: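 Enzyme preincubated with compound at room temperature in 25 mM HEPES pH 8.0, 137 mM NaCl, 2.7 mM KCl, 1 mM MgCl2; reaction started at 37 °C with Boc-Lys(Ac)-AMC substrate. Fluorescence read ex 360/em 470 nm after 10 min dark incubation; activity binned into ranges A–D (<0.05 to <10 μM).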

pIC50: −log10 of the molar value.

As for `O=C(NO)c1ccc2c(c1)NC(=O)[C@H](Cc1c[nH]c3ccccc13)NC2=O` [Compound 97c, (S)-3-((1H-Indol-3-yl)methyl)-N-hydroxy-2,5-dioxo-2,3,4,5-tetrahydro-1H-benzo[e][1,4]diazepine-8-carboxamide], the pIC50 is 5.70 to 6.30. Then `O=C(NO)c1ccc2c(c1)NC(=O)[C@@H](Cc1c[nH]c3ccccc13)NC2=O` [Compound 97d, (R)-3-((1H-Indol-3-yl)methyl)-N-hydroxy-2,5-dioxo-2,3,4,5-tetrahydro-1H-benzo[e][1,4]diazepine-8-carboxamide], with 5.70 to 6.30.

As for `CC(C)C[C@H]1NC(=O)c2ccc(C(=O)NO)cc2NC1=O` [Compound 97f, (R)-N-Hydroxy-3-isobutyl-2,5-dioxo-2,3,4,5-tetrahydro-1H-benzo[e][1,4]diazepine-8-carboxamide], the pIC50 is 5.00 to 5.70. Then `O=C(NO)c1ccc2c(c1)NC(=O)[C@@H](CC1CCCCC1)NC2=O` [Compound 97g, (R)-3-(Cyclohexylmethyl)-N-hydroxy-2,5-dioxo-2,3,4,5-tetrahydro-1H-benzo[e][1,4]diazepine-8-carboxamide], with 5.00 to 5.70. Consider `O=C(NO)c1ccc2c(c1)NC(=O)[C@H](CC1CCCCC1)NC2=O` [Compound 97h, (S)-3-(Cycbohexylmethyl)-N-hydroxy-2,5-dioxo-2,3,4,5-tetrahydro-1H-benzo[e][1,4]diazepine-8-carboxamide], for which the pIC50 is 5.70 to 6.30.

Consider `O=C(NO)c1ccc2c(c1)NC(=O)[C@H](c1ccccc1)NC2=O` [Compound 97i, (S)-N-Hydroxy-2,5-dioxo-3-phenyl-2,3,4,5-tetrahydro-1H-benzo[e][1,4]diazepine-8-carboxamide], for which the pIC50 was 5.00 to 5.70.

Take `O=C(NO)c1ccc2c(c1)NC(=O)[C@@H](c1ccccc1)NC2=O` [Compound 97j, (R)-N-Hydroxy-2,5-dioxo-3-phenyl-2,3,4,5-tetrahydro-1H-benzo[e][1,4]diazepine-8-carboxamide]: the pIC50 was 5.00 to 5.70. Then `O=C1CNC(=O)c2ccc(C(=O)NO)cc2N1` [Compound 97k, N-Hydroxy-2,5-dioxo-2,3,4,5-tetrahydro-1H-benzo[e][1,4]diazepine-8-carboxamide], with 5.00 to 5.70; and `O=C(NO)c1ccc(O[C@H]2C[C@@H](C(=O)Nc3cccc4cccnc34)N(C(=O)OCc3ccccc3)C2)cc1` [Compound 109a, (2S,4S)-Benzyl 4-(4-(hydroxycarbamoyl)phenoxy)-2-(quinolin-8-ylcarbamoyl)pyrrolidine-1-carboxylate], with 6.30 to 7.30. Turning to `O=C(NO)c1ccc(O[C@@H]2C[C@@H](C(=O)Nc3cccc4cccnc34)N(C(=O)OCc3ccccc3)C2)cc1` [Compound 109b, (2S,4R)- Benzyl 4-(4-(hydroxycarbamoyl)phenoxy)-2-(quinolin-8-ylcarbamoyl) pyrrolidine-1-carboxylate], the pIC50 was 6.30 to 7.30. Then `O=C(NO)c1ccc(O[C@H]2C[C@H](C(=O)Nc3cccc4cccnc34)N(C(=O)OCc3ccccc3)C2)cc1` [Compound 109c, (2R,4S)- Benzyl 4-(4-(hydroxycarbamoyl)phenoxy)-2-(quinolin-8-ylcarbainoyl) pyrrolidine-1-carboxylate], with 6.30 to 7.30; and `O=C(CCO[C@@H]1C[C@@H](C(=O)Nc2cccc3cccnc23)N(C(=O)OCc2ccccc2)C1)NO` [Compound 112a, (2S,4R)-benzyl 4-(3-(hydroxyamino)-3-oxopropoxy)-2-(quinolin-8-ylcarbamoyl)pyrrolidine-1-carboxylate], with 5.70 to 6.30.

Regarding `O=C(CO[C@@H]1CC(C(=O)Nc2cccc3cccnc23)N(C(=O)OCc2ccccc2)C1)NO` (stereo partly drawn) [Compound 112b, (2S,4R)-benzyl 4-(2-(hydroxyamino)-2-oxoethoxy)-2-(quinolin-8-ylcarbainoyl) pyrrolidine-1-carboxylate], the pIC50 is 5.70 to 6.30. The figure for `O=C(CCO[C@@H]1C[C@H](C(=O)Nc2cccc3cccnc23)N(C(=O)OCc2ccccc2)C1)NO` [Compound 112c, (2R,4R)-benzyl 4-(3-(hydroxyamino)-3-oxopropoxy)-2-(quinolin-8-ylcarbamoyl) pyrrolidine-1-carboxylate] is 5.70 to 6.30. Then `O=C(NO)c1ccc(NC(=O)N2c3ccccc3NC(=O)[C@H]2Cc2ccc(F)c(F)c2)cc1` [Compound 116, (R)-2-(3,4-Difluorobenzyl)-N-(4-(hydroxycarbamoyl)phenyl)-3-oxo-3,4-dihydroquinoxaline-1(2H)-carboxamide], with above 7.30. Then `O=C(NO)c1cccc(NC(=O)N2c3ccccc3NC(=O)[C@H]2Cc2ccc(F)c(F)c2)c1` [Compound 118, (R)-2-(3,4-difluorobenzyl)-N-(3-(hydroxycarbamoyl)phenyl)-3-oxo-3,4-dihydroquinoxaline-1(2H)-carboxamide], with 6.30 to 7.30; and `O=C(NO)c1cnc(N[C@H]2C[C@@H](C(=O)Nc3cccc4cccnc34)N(C(=O)OCc3ccccc3)C2)nc1` [Compound 122, (2S,4S)-Benzyl 4-(5-(hydroxycarbamoyl)pyrimidin-2-ylamino)-2-(quinolin-8-ylcarbamoyl)pyrrolidine-1-carboxylate], with above 7.30; and `O=C(NO)c1ccc(CN2C(=O)CNC(=O)[C@H]2Cc2c[nH]c3ccccc23)cc1` [Compound 136a, (R)-4-((2-((1H-Indol-3-yl)methyl)-3,6-dioxopiperazin-1-yl)methyl)-N-hydroxybenzamide], with above 7.30. As to `O=C(NO)c1ccc(CN2C(=O)CNC(=O)[C@H]2Cc2ccccc2)cc1` [Compound 136b, (R)-4-((2-Benzyl-3,6-dioxopiperazin-1-yl)methyl)-N-hydroxybenzamide], the pIC50 is above 7.30.

With `O=C(NO)c1ccc(CN2C(=O)CNC(=O)[C@H]2Cc2cccs2)cc1` [Compound 136c, (R)-4-((3,6-Dioxo-2-(thien-2-ylmethyl)piperazin-1-yl)methyl)-N-hydroxybenzamide], the pIC50 was 6.30 to 7.30.

The term pIC50 denotes the negative decadic logarithm of the IC50, by convention in mol/L.
